Test results as given in patent US9457007B2, “Prenylflavanone compounds for modulating diabetes” (NATUREWISE BIOTECH & MEDICALS CORPORATION, priority 2013, dated 2016).

Key:
Assay type in all cases: in vivo
[1] = test system: STZ-induced diabetic mice; assay: Analysis of glycosylated hemoglobin HbA1c; details: TPE study, TPE 36 mg/kg, DPP4I 370 mg/kg
Description: STZ was formulated with an aqueous solution of sodium citrate (pH 4.5, 73.5 mg/5 mL) on ice, and then 100 μL of the formulation was dosed by intraperitoneal injection. […] The glycosylated hemoglobin was used for evaluation of the efficacy of the testing substance in the regulation of blood glucose. […] (New Taipei City, Taiwan) for analysis. The analysis may confer an average and standard deviation to each group of the mice. In the event the presence of the blood glucose modulation efficacy for the testing substance, this value would be lower; and in the event the absence of the blood glucose modulation efficacy for the testing substance, this value would be higher.

[2] = test system: STZ-induced diabetic mice; assay: Oral glucose tolerance test (OGTT); design: reduction of AUC compared with the STZ group / extent of reduction of AUC compared with the STZ group: concentration or dose not given beside the values
Description: (§1) The male FBV mice of 5 weeks old, commercially available from BioLASCO Co., Ilan, Taiwan, were acclimatized for 1 week, prior to administration of streptozotocin (STZ) at 40 mg/kg for 3 consecutive days. STZ was formulated with an aqueous solution of sodium citrate (pH 4.5, 73.5 mg/5 mL) on ice, and then 100 μL of the formulation was dosed by intraperitoneal injection. From day 2 in the 3 consecutive days, the mice were dosed with 5% (w/v) glucose water for 6 consecutive days. After allowing the mice to rest for 10 days, blood glucose levels were measured. After administration of STZ for 1 week, about 5 μL of blood was collected from each of the mice at the tail vein, and was assayed for blood glucose by a blood glucose monitor and chip (FORA, California, U.S.A.). After 1 week, blood glucose was detected once more, and whether blood glucose was smooth or not was evaluated prior to grouping. The values of blood glucose in all of the mice induced to suffer from diabetes were brought to fall within about 300±50 mg/dL.
After administration of the testing substance to the animals for 12 weeks, the OGTT test was performed for evaluation of secretion and effects of insulin. All of the mice in the test were administered with the testing substance and then fasted for 4 hours prior to blood sampling at the first point called point 0. Afterwards, the mice were fed by oral gavage with 200 μL glucose in water, equivalent to a dose of 1.0 g/kg. After administration, blood was collected for an assay of blood glucose at 15, 30, 60, 120 and 180 minutes, respectively. Therefore, a total of 6 points, including points at 0, 15, 30, 60, 120 and 180 minutes, were obtained. About 5 μL of blood was collected from each of the mice at the tail vein and was then assayed for blood glucose by the blood glucose monitor and chip (FORA, California, U.S.A.). The blood glucose values at the Y-axis were plotted against the time points at the X-axis. Each group was calculated for an area under curve for comparison. The efficacy in regulation of blood glucose was evaluated by the area showing a relationship between the testing substance and secretion and effects of insulin.

[3] = test system: STZ-induced diabetic mice; assay: Water intake of the diabetic mice
Description: as §1
(§2) An appropriate amount of the Taiwan Green Propolis alcohol extract was dissolved with 3 ml 95% alcohol and then uniformly mixed with 80 μL Tween 80 as a cosolvent; after concentrating under reduced pressure for removal of alcohol, it was dispersed into 16 ml water to give a liquid mixture of the Taiwan Green Propolis extract. This mixture was fed by 200 μL gavage into the diabetic mice designated as the Taiwan Green Propolis extract group.
(§3) An appropriate amount of propolins and its relevant derivatives, such as PPA, PPB, PPC, PPD, PPE, PPF, PPG, PPH, PPI or PPJ, was dissolved with 3 ml 95% alcohol and then uniformly mixed with 80 μL Tween 80; after concentrating under reduced pressure for removal of alcohol, it was uniformly dispersed into 16 ml water to give a liquid mixture of propolins. This mixture was fed by 200 μL gavage into the diabetic mice designated as the propolins and its relevant derivative group.
(§4) Sitagliptin (trade name: Januvia), commercially available from American Merck Co., was used as the DPP4 inhibitor. An appropriate amount of sitagliptin was dissolved in water to provide a final concentration allowing administration of the mice at a dose of 370 mg/kg. In the following example, Januvia was representative of the DPP4 inhibitors and acted as a positive control group for reference.
(§5) Tween 80 (80 μL) was mixed into 16 ml water to give a placebo, which was fed by 200 μL gavage into the STZ-induced diabetic mice or normal mice (i.e., the mice without induction for diabetes). Oral gavage was carried out once at a fixed time each day, and weight, feedstuff intake and water intake were measured weekly until tests were finished at 12-13 weeks.

[4] = test system: STZ-induced diabetic mice; assay: Feedstuff intake of the diabetic mice; details: for feedstuff intake: propolins study
Description: as §1, §2, §3, §4, §5

[5] = test system: STZ-induced diabetic mice; assay: Blood glucose in the STZ-induced diabetic mice; details: propolins study; after administration for 8 weeks by gavage daily; PPC 9.0, PPD 6.75, PPF 4.5, PPG 4.5, Januvia 370 mg/kg/mouse
Description: as §1, with “mg/dL. […]” for “mg/dL.”
as §3, §4, §5

N[C@@H](CC(=O)N1CCn2c(nnc2C(F)(F)F)C1)Cc1cc(F)c(F)cc1F [DPP4I, Sitagliptin, reference compound]
reduction of the generation of glycosylated hemoglobin ([1]; 13 weeks): 55%
value of glycosylated hemoglobin ([1]; administration for 13 weeks): about 4.6%
blood glucose value in glucose tolerance test ([2]; TPE study, 0 point, glucose 1.0 g/kg oral, TPE 36 mg/kg, Januvia 370 mg/kg): about 260 mg/dL
blood glucose value in glucose tolerance test ([2]; TPE study, 30-minute time point after glucose in water): about 420 mg/dL
blood glucose value in glucose tolerance test ([2]; TPE study, 180-minute time point): 240 mg/dL
reduction of AUC compared with the STZ group ([2]; TPE study, OGTT): 66.1%
AUC value of blood glucose (integral area) ([2]; TPE study, OGTT 0-180 min, TPE 36 mg/kg, DPP4I 370 mg/kg): about 5.8×10^4
value of blood glucose in glucose tolerance test ([2]; propolins study, 0 point, PPC 9.0, PPD 6.75, PPF 4.5, PPG 4.5, DPP4I 370 mg/kg/mouse): about 380 mg/dL
value of blood glucose in glucose tolerance test ([2]; propolins study, 30-minute time point after glucose in water): about 450 mg/dL
value of blood glucose in glucose tolerance test ([2]; propolins study, 120-minute time point): about 450 mg/dL
value of blood glucose in glucose tolerance test ([2]; propolins study, 180-minute time point): 400 mg/dL
AUC value for blood glucose (integral area) ([2]; propolins study, OGTT): about 7.2×10^4
extent of reduction of AUC compared with the STZ group ([2]; propolins study, OGTT): 42.0%
water intake ([3]; TPE study, after 8 weeks, TPE 36 mg/kg/day, Januvia 370 mg/kg): 5.4 mL/day/mouse
water intake ([3]; TPE study, after 13 weeks, TPE 36 mg/kg/day, Januvia 370 mg/kg): 3.8 mL/day/mouse
water intake ([3]; TPE study, first week, TPE 36 mg/kg/day, Januvia 370 mg/kg): 7.0 mL/day/mouse
water intake ([3]; propolins study, at 1 week): 8.0 mL/mouse
water intake ([3]; propolins study, at 6 weeks): 12.0 mL/mouse
water intake ([3]; propolins study, at 8 weeks): 12.5 mL/mouse
effect on food intake ([4]; TPE study, 13 weeks, TPE 36 mg/kg/day, Januvia 370 mg/kg): the test results were the same
feedstuff intake ([4]; at 1 week): 5.5 g/mouse
feedstuff intake ([4]; at 6 weeks): 6.5 g/mouse
feedstuff intake ([4]; at 8 weeks): 6.4 g/mouse
blood glucose [5]: 330 mg/dL
